Test system: NKG2A^+ cells
Assay: NKG2A^+ cells, blood and mucosa, PMA (Table 1 summary)
Format: cell-based
Settings: * Zinc dependence
Method: Intracellular cytokines of Human blood NK cells using SAMT-247 and PMA stimulation with or without zinc chelator. The levels of NKG2A^+ NK cells were measured in blood of healthy humans. Human PBMCs were thawed and cultured in R10 in the presence or absence of SAMT-247 and/or PMA for 12 hours. Cells were incubated with or without Zinc chelator TPEN (cat. #P4413-100 MG, 5 μM) for 12 h. Subsequently, PBMCs were surface stained with the following: BUV737 anti-CD3 (SP34-2; cat. #741872, 5 μl), Alexa700 anti-CD20 (2H7; cat. #560631, 5 μl), BV786 anti-CD45 (HI30; cat. #563716, 5 μl) from BD Biosciences; APC-H7 anti-CD11b (ICRF44; cat. #47-0118-42, 5 μl) from eBioscience and PE-Cy7 anti-NKG2A (Z199; cat. #B10246, 5 μl) from Beckman coulter for 30 minutes at room temperature. This was followed by permeabilization with FOX3-transcription buffer set (cat. #00-5523-00) from eBioscience according to the manufacture's recommendation and subsequently intracellular staining with the following: BV750 anti-TNF-α (MAB11; cat. #566359, 5 μl), BUV396 anti-IFN-γ (B27; cat. #563563, 5 μl), BV510 anti-GranB (GB11; cat. #563388, 5 μl) from BD Biosciences; and FITC anti-Perforin (pf-344; cat. #3465-7, 5 μl) from MABTECH for 30 minutes at room temperature. Flow cytometry acquisitions were performed on a FACSymphony A5 and examined using FACSDIVA™ software (BD Biosciences).
Frequencies and cytokine levels of macaque rectal mucosal NK cells and T cells following SAMT-247 and PMA stimulation. NK/ILC and T cell frequencies and cytokine levels were measured in macaque rectal mucosa. Freshly collected rectal biopsies were processed to single cells and cultured in R10 in the presence/or absence of SAMT-247 and/or PMA for 12 hours. […]

Structure (SMILES): CC(=O)Sc1ccccc1C(=O)NCCC(N)=O [SAMT-247]
- Cytokine (IFN-γ): <IFN-γ *
- Cytokine (TNF-α): <TNF-α *
- Cytokine (granzyme and perforin): >Granzyme/Perforin
